From patent US20240059729A1, “MULTIFUNCTIONAL CYCLIC DINUCLEOTIDE AND USE THEREOF” (TYLIGAND BIOSCIENCE (SHANGHAI) LIMITED, priority 2020, published 2024) come the findings set out here.

In general, IC50 refers to the concentration that inhibits the measured activity by half. One may read the EC50 as the concentration at which the effect is half-maximal.

Experiment [1] has as its system CT26 cells. The experiment is described as follows: Inhibition of proliferation of CT26 cells (CellTiter-Glo). Type of experiment: cell-based, mouse. Particulars: for IC50: Mus musculus, 120 hours, CellTiter-Glo. As for the experimental part: CT26 cell is a mouse colorectal cancer cell line. This assay used the CellTiter-Glo Luminescence Cell Vitality Assay kit from Promega to evaluate the inhibitory activity of the compounds on the proliferation of CT26 cells.
In thawing the CT26 cells (ATCC #CRL-2638), a cell freezing tube was quickly shaken in a water bath at 37° C. to thaw the cells within 1 min. The thawed cell suspension was taken and evenly mixed with DMEM medium (GE, Cat #SH30243.01) containing 10% FBS (GIBCO, Cat #10099-141), centrifuged for 5 min at 1000 rpm, and the supernatant was discarded. The cell pellet was resuspended in 5 mL of the complete medium (DMEM medium containing 10% FBS), placed into a cell culture flask with a bottom area of 25 cm^2, and incubated in a cell incubator at 37° C., 5% CO2 and 95% humidity. When the cell confluence reached 70%˜80%, the cells were passaged. All the cells in the culture flask were transferred to a 15 mL centrifuge tube, centrifuged for 5 min at 1000 rpm, and the supernatant was discarded. 5 mL of fresh complete medium was added to re-suspend the cell pellet, 1 mL of which was taken to place in a cell culture flask with a bottom area of 25 cm^2, supplemented with 4 mL of fresh complete medium for further incubation. When the cell confluence reached 70%-80% again, plating was conducted following the procedure of cell passage, retaining 1/5 cell suspension for further inculation and remaining 4/5 of the cell suspension in a 15 mL centrifuge tube.
The cell suspension was centrifuged to discard the old culture medium, washed once using DMEM medium (serum-free), and centrifuged to remove the supernatant. The cells were then re-suspended in DMEM medium (serum-free). Cell viability was then detected by Trypan blue exclusion test and to be used for plating when the cell viability was confirmed to be more than 95%. A cell suspension with a density of 1.1×10^4 viable cells/mL was prepared using DMEM medium (serum-free), and 90 μL of the cell suspension was added to a 96-well 96-well transparent flat-bottomed black-walled cell culture plate (Corning, Cat #3603) so that the cell density in the plate was 1000 viable cells/well. A control group containing no cells, no compound, and complete medium only (i.e., a culture medium control), and a control group containing no compound but cells (i.e., a cell control) were set. The cell plates were placed in a cell incubator overnight.
(§1) A 10 mM stock solution of the compounds in DMSO was first serially diluted at 3.16-fold with DMSO (Sigma, Cat #D2650) to the 9th concentration, and the 10th concentration was set as DMSO control (compound-free). Then, the DMSO solutions containing different concentrations of the compounds were diluted at 10-fold with PBS (Solarbio, Cat #P1020) so that the DMSO content in each compound solution of various concentrations was 10%. Finally, 10 μL of each of such solutions was added into corresponding cell culture plate to provide an initial compound concentration of 100 μM, with the dilution fold of adjacent concentrations being 3.16 and the DMSO content in the cell culture plate being 1%. The cell plate was placed in a cell incubator for further 120 hours.
After 120 hours, the CellTiter-Glo reagent (Promega, Cat #G7572) was thawed and the plates were equilibrated at room temperature for 30 min. 100 uL of CellTiter-Glo was added to each well of the plate, and the cells were lysed thoroughly by shaking on an orbital shaker for 5 min. The plates were placed at room temperature for 20 min to stabilize the luminescence signal, and the luminescence value of each well was scanned at full wavelength with a multifunctional microplate reader (Molecular Devices, Spectramax M3). […]

Experiment [2] relates to IFN-β secretion by THP-1 cells. Kind of experiment: Activation of IFN-β secretion by THP-1 cells (Human IFN-beta ELISA). Particulars: for EC50 / Activating effect on IFN-β secretion / STING agonist activity (in words): THP-1 cells; for EC50: 24 hours, IFN-β ELISA; for Activating effect on IFN-β secretion / STING agonist activity (in words): EC50 compared with 2′,3′-cGAMP and ADU-S100. The class given is cell-based. As for the experimental part: THP-1 cell, a human monocytic leukemia cell line, has the STING phenotype of HAQ type, i.e., R71H-G230A-R293Q. This assay used the Human IFN-beta DuoSet ELISA Kit from R & D (R & D, Cat #DY814-05) and the DuoSet ELISA Ancillary Reagent Kit 2 (R & D, Cat #DY008) to evaluate the activation of IFN-β secretion from THP-1 cells by representative compounds of the invention.
In thawing the THP-1 cells (ATCC #TIB-202), a cell freezing tube was quickly shaken in a water bath at 37° C. to thaw the cells within 1 min. The thawed cell suspension was taken and evenly mixed with an RPMI1640 medium (Hyclone, product #SH30027.01) containing 10% FBS (Life Technology, Cat #10099-141), centrifuged for 5 min at 1000 rpm, and the supernatant was discarded. The cell pellet was resuspended in 5 mL of the complete medium (RPMI 1640 medium containing 10% FBS), placed into a cell culture flask with a bottom area of 25 cm^2, and incubated in a cell incubator at 37° C., 5% CO2 and 95% humidity. When the cell confluence reached about 80%, the cells were passaged. All the cells in the culture flask were transferred to a 15 mL centrifuge tube, centrifuged for 5 min at 1000 rpm, and the supernatant was discarded. 5 mL of fresh complete medium was added to re-suspend the cell pellet, 1 mL of which was taken to place in a cell culture flask with a bottom area of 25 cm^2, supplemented with 4 mL of fresh complete medium for further incubation. When the cell confluence reached about 80% again, plating was conducted following the procedure of cell passage, retaining 1/5 cell suspension for further inculation and remaining 4/5 of the cell suspension in a 15 mL centrifuge tube. The cell suspension was centrifuged to discard the old culture medium, washed once using RPMI1640 culture medium (serum-free), and centrifuged to remove the supernatant. The cells were then re-suspended in RPMI1640 culture medium (serum-free). Cell viability was then detected by Trypan blue exclusion test and to be used for plating when the cell viability was confirmed to be more than 95%. A cell suspension with a density of 1.1×10^6 viable cells/mL was prepared using RPMI1640 culture medium (serum-free), and 180 μL of the cell suspension was added to a 96-well cell culture plate (NUNC Company, Cat #167008) so that the cell density in the plate was 2×10^5 viable cells/well.
as §1, with “the 5th” for “the 9th”, “the 6th” for “the 10th”, “PBS” for “PBS (Solarbio, Cat #P1020)”, “Finally, 20” for “Finally, 10”, “further 24” for “further 120”
ELISA detection was conducted referring to the instructions from R & D System, Cat #DY814-05.
ELISA plate coating: PBS (R & D System Cat #DY006) was used to dilute the capture antibody (mouse anti-human IFN-β capture antibody PART #844508) to provide the working concentration, and 100 μL capture antibody working solution was added to a 96-well ELISA plate which was then sealed and incubated overnight at room temperature. Upon discarding the capture antibody working solution, the cell plate was washed 3 times with a washing buffer (0.05% Tween-20 in PBS, pH 7.2-7.4, R & D System Cat #WA126) at 400 μL of the washing buffer per well, and the washing buffer was thoroughly removed after each washing, with the final washing to be completely removed of the wash buffer by inverting and claping the plate to a clean piece of paper. […]

Experiment [3] concerns CT26 cells. The experiment is described as follows: Anti-tumor activity in bilateral transplantation tumor model of CT26 syngeneic mouse. Type of experiment: in vivo, BALB/c mice. The note with it: Day 13 post-dose; 50 μg/mouse intratumorally right side, Day 0 and Day 4. As for the experimental part:
BALB/c mice of 6-8 weeks (purchased from Shanghai Ling Chang Biotech Co., Ltd.) were inoculated with 5×10^5 CT26 cells (supplied by Taicang Zexin Biotechnology Co., Ltd., ATCC #CRL-2638) subcutaneously on the left and right back dorsal, respectively, and the inoculation volume was 0.1 mL/side. When tumors grew to an average volume of 100 mm^3, they were randomized according to tumor size and mouse body weight and dosing was initiated. The day of the first dose was Day 0.
Two doses were administered on Day 0 and Day 4, with 50 μg of compound/mouse (i.e., 2.5 mg/kg) injected intratumorally right side, with the same volume of PBS (Hyclone, Cat #SH30258.01) as a control. The tumor on the left side was not treated. The control mice were sacrificed 13 days and the treated mice were sacrificed 21 days, after dosing. During the experiment, tumor volumes on the left and right sides and the body weights were measured 3 times per week, and the tumor volume was calculated as V=D×d×d/2 (where D represents length of tumor and d represents width of tumor).

Where a name gives a salt, the structure may show the parent alone.

`Nc1nc(Cl)nc2c1ncn2[C@H]1CC2O[P@](=O)(S)OC[C@H]3O[C@@H](n4cnc5c(N)nc(Cl)nc54)CC3O[P@](=O)(S)OC[C@H]2O1` (stereo partly shown) [Example 2, (3′,3′)-cyclo-(Rp,Rp)-bis-[3′-O-phosphorothioate-diester-2-chloro-2′-deoxyadenosine]] gave an IC50 in the experiment on CT26 cells [1] of 1 to 10 µM.

On to `Nc1ccn([C@@H]2O[C@@H]3CO[P@@](=O)(S)OC4[C@@H](CO[P@@](=O)(S)OC3C2(F)F)O[C@@H](n2ccc(N)nc2=O)C4(F)F)c(=O)n1` (stereo partly shown) [Example 3, (3′,3′)-cyclo-(Rp,Rp)-bis-[3′-O-phosphorothioate-diester-2′-deoxy-2′,2′-difluorocytidine]], for which, in the experiment with CT26 cells [1], the “Inhibitory potency on in vitro growth of CT26 tumor cells (in words)” value is on record as “particularly significant inhibitory potency” and the concentration for half-maximal inhibition (IC50) was less than 1 µM.

`Nc1nc(Cl)nc2c1ncn2[C@@H]1O[C@@H]2CO[P@@](=O)(S)OC3C(O)[C@@H](CO[P@@](=O)(S)OC2C1F)O[C@H]3n1cnc2c(N)ncnc21` (stereo partly drawn) [Example 5, (2′,3′)-cyclo-(Rp,Rp)-[2′-O-phosphorothioate-diester-adenosine]-[3′-O-phosphorothioate-diester-2-chloro-2′-deoxy-2′-fluoro-beta-adenosine] diammonium salt] came in with an IC50 with CT26 cells [1] of 1 to 10 µM. In addition, in experiment [2] (Homo sapiens, THP-1, 24 h), the EC50 was in the range of 10.1 to 100 µM.

The molecule `Nc1ncnc2c1ncn2[C@@H]1O[C@@H]2CO[P@@](=O)(S)OC3C(F)[C@H](n4cnc5c(N)nc(Cl)nc54)O[C@@H]3CO[P@@](=O)(S)OC2C1O` (stereo partly drawn) [Example 7, (3′,3′)-cyclo-(Rp,Rp)-[3′-O-phosphorothioate-diester-adenosine]-[3′-O-phosphorothioate-diester-2-chloro-2′-deoxy-2′-fluoro-beta-adenosine] diammonium salt] had an IC50 with CT26 cells [1] of 1 to 10 µM.

Regarding `Nc1nc2c(ncn2[C@@H]2O[C@@H]3CO[P@@](=O)(S)OC4C[C@H](n5cnc6c(N)nc(Cl)nc65)O[C@@H]4CO[P@@](=O)(S)OC2C3O)c(=O)[nH]1` (stereo partly shown) [Example 12, (2′,3′)-cyclo-(Rp,Rp)-[2′-O-phosphorothioate-diester-guanosine]-[3′-O-phosphorothioate-diester-2-chloro-2′-deoxy-adenosine] diammonium salt], in the experiment with CT26 cells [3], the “Growth inhibition rate, untreated left tumor” value was determined as 75.3%. The molecule further showed an IC50 with CT26 cells [1] of 1 to 10 µM. In addition, the EC50 in experiment [2] (Homo sapiens, THP-1, 24 h) was in the range of 1 to 10 µM. Also, in experiment [2], the “Activating effect on IFN-β secretion / STING agonist activity (in words)” value is “significant STING agonist activity”.

Take `Nc1ccn([C@@H]2O[C@@H]3CO[P@@](=O)(S)O[C@H]4C(O)[C@@H](CO[P@@](=O)(S)O[C@@H]3C2(F)F)O[C@H]4n2cnc3c(=O)[nH]c(N)nc32)c(=O)n1` (stereo partly shown) [Example 13, (2′,3′)-cyclo-(Rp,Rp)-[2′-O-phosphorothioate-diester-guanosine]-[3′-O-phosphorothioate-diester-2′-deoxy-2′,2′-difluorocytidine]diammonium salt]: the IC50 in the experiment on CT26 cells [1] was less than 1 µM. This molecule returned a half-maximal effective concentration (EC50) in experiment [2] (Homo sapiens, THP-1, 24 h) of 10.1 to 100 µM.

In the case of `Nc1nc2c(ncn2[C@@H]2O[C@@H]3CO[P@@](=O)(S)OC4C(F)[C@H](n5cnc6c(N)nc(Cl)nc65)O[C@@H]4CO[P@](=O)(S)OC3C2O)c(=O)[nH]1` (stereo partly drawn) [Example 16, (3′,3′)-cyclo-(Rp,Rp)-[3′-O-phosphorothioate-diester-guanosine]-[3′-O-phosphorothioate-diester-2-chloro-2′-deoxy-2′-fluoro-beta-adenosine] diammonium salt], in the experiment with CT26 cells [3], the “Growth inhibition rate, untreated left tumor” value is reported as 71.7%. In the experiment on CT26 cells [1], this molecule had an IC50 of 1 to 10 µM. In experiment [2] (diammonium salt), the half-maximal effective concentration (EC50) is 1 to 10 µM. The “Activating effect on IFN-β secretion / STING agonist activity (in words)” value in experiment [2] was “significant STING agonist activity”. Besides, the “Highest concentration of IFN-β secreted by stimulated THP-1 cells” value in experiment [2] (compared with ADU-S100) is given as “higher than that of ADU-S100”.

On to `Nc1ccn([C@@H]2O[C@H](CO)[C@@H](O)C2(F)F)c(=O)n1` [Gemcitabine, gemcitabine, reference compound], for which, in the experiment with CT26 cells [1], the concentration for half-maximal inhibition (IC50) was less than 1 µM.

Molecule `CCCC(CCC)C(=O)Nc1ccn([C@@H]2O[C@H](CO)[C@@H](O)C2(F)F)c(=O)n1` [LY2334737, N4-(2-propylpentanoyl)-2′-deoxy-2′,2′-difluorocytidine, reference compound] registered a 50% inhibitory concentration (IC50) in the experiment on CT26 cells [1] of 1 to 10 µM.
